{"source": "patent US20090264421A1", "about": "(priority 2007, published 2009)", "test_system": "patient CD138+ myeloma cells and CD138- bone marrow cells", "format": "cell-based, human", "conditions": "10 μM for 20 minutes, corrected for average cell volumes, 4 patients", "procedure": "FIG. 7. Chaetocin induces oxidative stress in A549 cells without appreciable depletion of intracellular reduced glutathione levels, while the selective cytotoxicity of chaetocin in freshly collected myeloma cells appears to be attributable to their increased sensitivity to oxidative stressors. […] Chaetocin-induced increased oxidative species are attenuated by co-treatment with 10 mM NAC (C). D. Summary of results from FACS indicating changes of oxidative species induced in response to various treatments. Results shown are representative of three independent FACS experiments as described in the text; *p<0.05, **p<0.01. E. Effects of chaetocin or hydrogen peroxide (in comparison to diluent) on ROS (superoxide) levels in U266 myeloma cells as assessed using FACS analyses and hydroethidium as an ROS-sensitive FACS probe. Error bars indicate one sample standard deviation, results replicated in triplicate; ***p<0.001. […] Glutathione levels were assessed by spectrophotometric assay as described below. […] Cells were treated with 10 μM chaetocin for 20 minutes prior to assay, and calculated intracellular chaetocin levels were measured by HPLC with adjusted for differences in average cell volume (calculated from measured cell radii ascertained via light microscopy). […]", "data": [{"smiles": "CN1C(=O)[C@@]23C[C@]4([C@]56C[C@@]78SS[C@@](CO)(C(=O)N7[C@H]5Nc5ccccc56)N(C)C8=O)c5ccccc5N[C@@H]4N2C(=O)[C@]1(CO)SS3", "note": "[chaetocin]", "values": [{"measurement": "intracellular accumulation in CD138- leukocytes versus CD138+ myeloma cells", "result": "no indication of lessened intracellular accumulation"}]}]}
